Among the test systems are HCT-116 colon; HT29 colon; M14 melanoma; SK-MEL-5 melanoma; SK-OV-3 ovarian; SNB-19 CNS; TK-10 renal; UACC-62 melanoma; UO-31 renal; MCF7 breast.
Common to all, as to experiment: NCI-60 cell line screen, 48 h

Structures are written as SMILES. Several values for one entry are separate records, joined by “and”; a condition that tells them apart may be missing. Equal entries are not always repeated.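 96-well plates; 48 h exposure; 5 concentrations. Endpoints by linear interpolation between flanking doses. Not reached: highest tested concentration assigned. At the GI50, growth is halved. At the TGI there is no net growth.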

In the case of `COc1ccccc1CC(C)N` (stereo not given), the TGI in the test on HCT-116 colon, in the test with HT29 colon, with M14 melanoma, with SK-MEL-5 melanoma, with SK-OV-3 ovarian and in the test on SNB-19 CNS was above 100 µM each time. The TGI in the test on TK-10 renal, in the test with UACC-62 melanoma and in the test with UO-31 renal was above 100 µM throughout.
For `NC(CCOCCP(=O)(O)CCC1C=CC=CC1)C(=O)O` (stereo not given), the TGI in the test on HCT-116 colon, in the test on HT29 colon, in the test with M14 melanoma, in the test on MCF7 breast, with SK-MEL-5 melanoma and with SK-OV-3 ovarian was above 100 µM throughout. For the same molecule, the TGI with SNB-19 CNS, with TK-10 renal, in the test on UACC-62 melanoma and in the test on UO-31 renal was above 100 µM throughout.
For `S=c1c2[nH]cnc2ncn1CCSC1=NC=NC2=NC=NC21` (stereo not given), the TGI in the test on HCT-116 colon, with HT29 colon, with M14 melanoma, in the test with MCF7 breast, in the test on SK-MEL-5 melanoma and in the test with SK-OV-3 ovarian was above 100 µM in each case. Also, the TGI with SNB-19 CNS, with TK-10 renal, with UACC-62 melanoma and in the test with UO-31 renal was above 100 µM in each case.
As to `Nc1ccc(O)c2c1C(=O)c1c(N)ccc(O)c1C2=O`, the TGI with HCT-116 colon, with M14 melanoma, with SK-MEL-5 melanoma, in the test with SK-OV-3 ovarian, in the test with SNB-19 CNS and with TK-10 renal was above 100 µM each time. Besides, the TGI with UACC-62 melanoma and with UO-31 renal was above 100 µM each time.
On to `CN(CC(=O)O)Cc1c(O)c(Cl)cc(Cl)c1Cl`, for which the TGI in the test with HCT-116 colon, in the test on HT29 colon, in the test with M14 melanoma, in the test with MCF7 breast, in the test with SK-MEL-5 melanoma and in the test with SK-OV-3 ovarian was above 100 µM each time. For the same molecule, the TGI in the test with SNB-19 CNS is above 100 µM; in the test with TK-10 renal, above 100 µM; in the test with UACC-62 melanoma, 77.3 µM; in the test on UO-31 renal, above 100 µM.
For the molecule `Cc1cc2c(c(O)c1-c1c(C)cc(O)c3c1C(=O)C=CC3=O)C(=O)C=CC2=O`, the TGI in the test on M14 melanoma is above 100 µM; with SK-MEL-5 melanoma it was 14.5 µM; in the test with SK-OV-3 ovarian it was 29 µM; with SNB-19 CNS, above 56.8 µM; with TK-10 renal it was 3.12 µM; in the test on UACC-62 melanoma, 4.98 µM. The same molecule showed a TGI with UO-31 renal of 3.44 µM.
Regarding `CCN(CC)CC[n+]1ccc2c(C)c3[nH]c4ccc(O)cc4c3c(C)c2c1`, the GI50 in the test with HCT-116 colon was 4.36 µM; in the test on HT29 colon, 12.6 µM; in the test on MCF7 breast, 1.74 µM; in the test on SK-MEL-5 melanoma, 4.5 µM; in the test on SK-OV-3 ovarian, 5.94 µM; in the test with SNB-19 CNS, 0.634 µM. For the same molecule, the GI50 in the test on UACC-62 melanoma is 5.41 µM; in the test on UO-31 renal, 20.6 µM. In addition, the TGI with HCT-116 colon is 26.7 µM and 30.8 µM; in the test with HT29 colon it was 41.1 µM and > 67.5 µM; with M14 melanoma, 34.9 µM; with MCF7 breast it was 34.5 µM and 80.6 µM; with SK-MEL-5 melanoma, 12.6 µM and 27.1 µM; in the test on SK-OV-3 ovarian, 66.9 µM and 58.4 µM. Moreover, the TGI in the test on SNB-19 CNS is 8.76 µM and 10.8 µM; in the test on UACC-62 melanoma, 23.1 µM and 48.9 µM; in the test with UO-31 renal it was > 96.1 µM and 150 µM.
Take `O=C(NC(Cc1ccc(Br)cc1)C(=O)O)c1ccc(I)cc1` (stereo not given): the TGI with HCT-116 colon, with HT29 colon, in the test on MCF7 breast, with SK-MEL-5 melanoma, with SK-OV-3 ovarian and in the test with SNB-19 CNS was above 100 µM each time. Also, the TGI in the test with UACC-62 melanoma and with UO-31 renal was above 100 µM each time.
As for `CSc1nc(CO)c(CO)n1C`, the TGI in the test with HCT-116 colon, in the test on HT29 colon, in the test with MCF7 breast, in the test with SK-MEL-5 melanoma, with SK-OV-3 ovarian and in the test with SNB-19 CNS was above 100 µM each time. In addition, the TGI in the test on UACC-62 melanoma and in the test on UO-31 renal was above 100 µM each time.
As to `CNC1Cc2c[nH]c3cccc(c23)C12C=C(C)C(=O)O2` (stereo not given), the TGI in the test with HCT-116 colon, in the test on HT29 colon, in the test on M14 melanoma, in the test on MCF7 breast, in the test on SK-MEL-5 melanoma and in the test on SK-OV-3 ovarian was above 100 µM throughout. For the same molecule, the TGI with SNB-19 CNS, with TK-10 renal, with UACC-62 melanoma and with UO-31 renal was above 100 µM each time.
`CC1C(=O)CC(c2cccs2)N(N=O)C1c1cccs1` (stereo not given): the TGI is above 100 µM in the test on HCT-116 colon; above 59.1 µM in the test on HT29 colon; 88.5 µM with MCF7 breast; above 100 µM in the test with SK-MEL-5 melanoma; above 81.2 µM in the test with SK-OV-3 ovarian; above 100 µM with SNB-19 CNS. Further, the TGI in the test with UACC-62 melanoma and in the test with UO-31 renal was above 100 µM in each case.
Consider `Clc1cc(Cl)c2cc3cccc[n+]3cc2c1Cl`, for which the TGI is above 100 µM in the test with HCT-116 colon; 30.7 µM in the test on HT29 colon; 39 µM in the test on M14 melanoma; 31.9 µM with MCF7 breast; 30.5 µM with SK-MEL-5 melanoma; 30.1 µM in the test with SK-OV-3 ovarian. The TGI with SNB-19 CNS came out at 28.7 µM; in the test with TK-10 renal, 40.2 µM; with UACC-62 melanoma, 32.7 µM; in the test on UO-31 renal, 28.4 µM.
On to `CCCCCCCCCCCCCC1=C(O)C(=O)C(CC2=C(O)C(=O)C(CCCCCCCCCCCCC)=C(O)C2=O)=C(O)C1=O`, for which the TGI in the test with HCT-116 colon, in the test with HT29 colon, with M14 melanoma, in the test with MCF7 breast, with SK-MEL-5 melanoma and in the test on SK-OV-3 ovarian was above 100 µM in each case. Further, the TGI in the test with SNB-19 CNS was 92.9 µM; in the test with TK-10 renal it was above 100 µM; in the test with UACC-62 melanoma, above 100 µM; with UO-31 renal, above 100 µM.
